Results taken from US20230047102A1, “PHARMACEUTICAL COMPOSITIONS COMPRISING N-[1-(5-CYANO-PYRIDIN-2-YLMETHYL)-1H-PYRAZOL-3-YL]-2-[4-(1-TRIFLUOROMETHYL-CYCLOPROPYL)-PHENYL]-ACETAMIDE” (Idorsia Pharmaceuticals Ltd, priority 2019, published 2023).

Tests used:
[1] = subject to certain variations of this value found in the literature; cited from earlier work
[2] = Steady-state exposure with 60 mg once-daily dose in adults; format: in vivo, human; details: 60 mg once-daily dose at steady state in adults; 95% confidence interval 11.2, 16.7
Description: The starting dose of study treatment for the sentinel cohort (dose level 1) will be based on body weight categories (based on subjects' body weight on Day 1), as detailed in the table below. This study intends to target exposures equivalent to those observed with a 60 mg once-daily dose at steady state in adults (area under the concentration versus time curve during 1 dosing interval [AUCT] of 13.7 μgxh/mL [95% confidence interval (CD: 11.2, 16.7 μgxh/m14. Based on the exposure data obtained from the sentinel cohort, the doses may be adjusted if required to achieve the targeted exposure in the main cohort.

Molecule: CCCCCCCCCCCCOS(=O)(=O)[O-].[Na+] [SLS, Sodium lauryl sulfate]
- hydrophilic-lipophilic balance (HLB) value [1]: about 40

Molecule: Poloxamer 188
- hydrophilic-lipophilic balance (HLB) value [1]: about 29

Molecule: N#Cc1ccc(Cn2ccc(NC(=O)Cc3ccc(C4(C(F)(F)F)CC4)cc3)n2)nc1 [NBI-827104, N-[1-(5-cyano-pyridin-2-ylmethyl)-1H-pyrazol-3-yl]-2-[4-(1-trifluoromethyl-cyclopropyl)-phenyl]-acetamide]
- area under the concentration versus time curve during 1 dosing interval [AUCT] [2]: 13.7 μgxh/mL
